Laboratory results taken from US20230220353A1, “IN VITRO LIVER ORGANOIDS AND MINI-BILE DUCT MODELS OF BILIARY ARTRESIA AND APPLICATIONS THEREOF” (priority 2022, published 2023).

How the values were obtained:
human cholangiocytes = experiment: Cilia mechano-sensory calcium influx assay in mini-bile duct under shear flow (Calbryte 520); assay type: cell-based; conditions: 2 μg/ml for 5 days, shear flow 1 dyne/cm2, vs untreated cholangiocytes
Protocol: The organoids were released from the Matrigel by cold Advanced DMEM. The organoid pellets were obtained by centrifugation at 300 g, 3 minutes. Afterwards, the organoids were digested for 5 minutes at 37° C. via 1 mL of TrypLE Express Enzyme (1×). About 5,000 of organoid cells were seeded into each channel of the Matrigel coated 6-channel ibidi microfluidic chips (80607, ibidi), and the microfluidic chips were incubated at 37° C. in incubator. At day 3, monoloayer of cholangiocytes was formed representing the mini-bile duct with the luminal side facing the medium and the basal side facing the bottom of the microfluidic chips. To prepare for the calcium influx measurement, cholangiocyte monolayer was first incubated with 5 μM of Calbryte 520-AM (ATT) (prepared in Hanks' balanced salt solution, HBSS) for 1 hour at 37° C. Then, the cholangiocytes were washed with HBSS (5 minutes for 3 times). […] Time-lapse images were acquired for green fluorescence for 20 seconds (1-second intervals and 10 milliseconds exposure time) using Nikon Ti2e microscope (Nikon, Japan). […]
On day 3 post confluence, cholangiocytes were incubated with 5 μM of Calbryte 520-AM (ATT) (prepared in Hanks' balanced salt solution, HBSS) for 1 hour at 37° C. […] Time-lapse images were acquired for green fluorescence for 20 seconds (1-second intervals and 10 milliseconds exposure time) using Nikon Ti2e microscope (Nikon, Japan). […]

human liver organoids [1] = experiment: Ciliated cholangiocyte count (pericentrin / acetylated α-tubulin immunostaining); assay type: cell-based
Protocol: (§1) Organoids were imaged on a laser confocal microscopy (Leica) equipped with a 20× dry objective and a 63× oil-immersion objective. Images were analyzed using ImageJ software. For quantification of the number of cilia from each group, the organoids were imaged using confocal microscopy (0.8 μm Z-axis interval, 40 μm in thickness). Maximum intensity projection was performed for visualization of the cilia in the organoids. FIG. 3A are representative images of control and day-2 biliatresone-treated human liver organoids stained for HNF4A (green). Nuclei were stained with DAPI (blue). The percentage of HNF4A positive cells in control and day-2 biliatresone-treated organoids were determined by counting the total number of cells and HNF4A+ cells of the organoids. Number of organoids counted in each group=3; *, p<0.05, student's t-test; error bars indicated the standard deviation.
To investigate if biliatresone disturbed ciliogenesis in human organoids, control organoids and biliatresone-treated organoids were immuno-stained for ciliary proteins Pericentrin (PCNT) and alpha-tubulin. […] The percentages of ciliated cells in control and biliatresone-treated organoids were determined by counting total number of cells and ciliated cells of the organoids. Number of organoids counted in each group=3; *, p<0.05, student's t-test; error bars indicated the standard deviation.

GSH = GSH level in liver organoids; assay type: cell-based, human
Protocol: GSH levels were measured in liver organoids from 0 to 48 hours without (Ctrl) or with biliatresone. Data was obtained from 3 wells in each group; *, p<0.05, student's t-test; error bars indicated the standard deviation.

human liver organoids [2] = experiment: Growth and morphology of human liver organoids (Hematoxylin and Eosin staining); assay type: cell-based; conditions: 2 μg/ml biliatresone
Protocol: Briefly, liver biopsy was minced and digested in gentle MACS-C Tube with 5 ml digestion medium (Multi Tissue Dissociation Kit 1), filtered (70 μm and 30 μm) and sorted by human CD326 (EpCAM) magnetic beads. CD326 positive cells were mixed with Matrigel (50,000 cells in 50 μl) and added to each well of a four-well culture plate (Nunc™ 4-Well Dishes). After Matrigel solidification, organoid medium (Advanced DMEM/F12 supplemented with 1% Penicillin/Streptomycin (Invitrogen), 250 ng/ml Amphotericin B (GIBCO), […], 1% N2 and 1% B27(GIBCO), 1.25 mM N-Acetylcysteine (Sigma), 10 nM gastrin (Sigma), and the growth factors: 50 ng/ml mEGF (Peprotech), 100 ng/ml FGF10 (Peprotech), 25 ng/ml HGF (Peprotech), 10 mM Nicotinamide (Sigma), 5 μM A83.01 (Tocris), and 10 μM FSK (Tocris), 25 ng/ml Noggin (Peprotech), 500 ng/ml R-Spondin 1 (R&D), 100 ng/ml Wnt3a (R&D), 10 μM Y27632 (Sigma Aldrich)) was added for organoid culturing. The medium was changed every three days. After culturing for 5 days, biliatresone solution (2867, Axon MEDCHEM; 2 μg/ml in DMSO) was added into the medium and the organoids were cultured for different periods for subsequent analysis. For the untreated control culture, DMSO (same volume as biliatresone) was added to the culture. FIG. 1 is a schematic diagram of the generation of biliatresone treated human liver organoids. […]

human liver organoids [3] = experiment: FITC-labeled dextran diffusion test (tight junction barrier integrity); assay type: cell-based; conditions: day-2 treated organoids, after 10 minutes of incubation; not observed in control
Protocol: In order to determine the integrity of liver organoids, a FITC-labeled dextran diffusion test was carried out to investigate if biliatresone-treated organoids has defects in the tight junction barrier for solutes. […] The fluorescent intensity of liver organoids was imaged using laser confocal microscopy at 10 and 30 minutes.

human liver organoids [4] = experiment: Immunostaining of human liver organoids for differentiation, polarity, cytoskeleton and β-amyloid markers; assay type: cell-based
Protocol: Hepatocytic differentiation in human organoids was assessed by immuno-fluorescence for hepatocyte maker (HNF4A). Organoids in the Matrigel were washed with PBS (phosphate-buffered saline) before being fixed with 4% paraformaldehyde at room temperature for 20 minutes. The organoids were permeabilized with Triton X-100 (0.5% in PBS) for 20 minutes and blocked with 3% bovine serum albumin (BSA, Sigma-Aldrich) in PBS with 0.05% Triton X-100 (PBST) for 30 minutes at room temperature. The organoids were then incubated in primary antibodies (diluted in PBST with 3% BSA) at 4° C. overnight. After PBST washes (5 minutes for 3 times), organoids were incubated in secondary antibodies (diluted in PBST with 3% BSA) for 2 hours at room temperature. Afterward, the organoids were rinsed with PBS 3 times and incubated with DAPI solution for 30 minutes at room temperature. The organoids were rinsed with PBS (5 minutes for 3 times). Primary and secondary antibodies used in this examples were anti-ZO-1 (1:50, RA231621, Thermo Fisher), anti-CK19 (1:200, ab220193, Abcam), anti-F-actin (1:500, A22287, Thermo Fisher), anti-beta-amyloid (1:200, SIG-39220, 4G8, BioLegend), anti-HNF4A (1:50, ab201460, Abcam), Alexa Fluor 488 (1:500, A11008, Invitrogen) and Alexa Fluor 594 (1:500, A11032, Invitrogen).
as §1
To test if biliatresone induces apical-basal polarity defects in human organoids, the control group and biliatresone-treated organoids were stained with anti-ZO-1 antibody. FIG. 4 depicts the result of immunostaining of control and day-2 biliatresone-treated human liver organoids for ZO-1 (green) and CK19 (red). Nuclei were stained with DAPI (blue).
To investigate if biliatresone also induces cytoskeleton defects and Aβ accumulation in human organoids, Immunostaining was carried out for the control and day-2 biliatresone-treated human liver organoids for cytoskeleton protein F-actin (green) and β-amyloid (red). Nuclei were stained with DAPI (blue).
The percentages of β-amyloid positive cells in control and day-2 biliatresone-treated organoids were determined by counting total number of cells and β-amyloid+ cells of the organoids. Number of organoids counted in each group=3; *, p<0.05, student's t-test; error bars indicated the standard deviation.

MDR1 = MDR1 (Homo sapiens, UniProt P08183); experiment: MDR1 activity assay (MDR1-mediated Rhodamine 123 transport assay); conditions: day-2 biliatresone-treated organoids, Rhodamine 123 100 μM, 30 minutes
MDR1, sequence (P08183 whole entry): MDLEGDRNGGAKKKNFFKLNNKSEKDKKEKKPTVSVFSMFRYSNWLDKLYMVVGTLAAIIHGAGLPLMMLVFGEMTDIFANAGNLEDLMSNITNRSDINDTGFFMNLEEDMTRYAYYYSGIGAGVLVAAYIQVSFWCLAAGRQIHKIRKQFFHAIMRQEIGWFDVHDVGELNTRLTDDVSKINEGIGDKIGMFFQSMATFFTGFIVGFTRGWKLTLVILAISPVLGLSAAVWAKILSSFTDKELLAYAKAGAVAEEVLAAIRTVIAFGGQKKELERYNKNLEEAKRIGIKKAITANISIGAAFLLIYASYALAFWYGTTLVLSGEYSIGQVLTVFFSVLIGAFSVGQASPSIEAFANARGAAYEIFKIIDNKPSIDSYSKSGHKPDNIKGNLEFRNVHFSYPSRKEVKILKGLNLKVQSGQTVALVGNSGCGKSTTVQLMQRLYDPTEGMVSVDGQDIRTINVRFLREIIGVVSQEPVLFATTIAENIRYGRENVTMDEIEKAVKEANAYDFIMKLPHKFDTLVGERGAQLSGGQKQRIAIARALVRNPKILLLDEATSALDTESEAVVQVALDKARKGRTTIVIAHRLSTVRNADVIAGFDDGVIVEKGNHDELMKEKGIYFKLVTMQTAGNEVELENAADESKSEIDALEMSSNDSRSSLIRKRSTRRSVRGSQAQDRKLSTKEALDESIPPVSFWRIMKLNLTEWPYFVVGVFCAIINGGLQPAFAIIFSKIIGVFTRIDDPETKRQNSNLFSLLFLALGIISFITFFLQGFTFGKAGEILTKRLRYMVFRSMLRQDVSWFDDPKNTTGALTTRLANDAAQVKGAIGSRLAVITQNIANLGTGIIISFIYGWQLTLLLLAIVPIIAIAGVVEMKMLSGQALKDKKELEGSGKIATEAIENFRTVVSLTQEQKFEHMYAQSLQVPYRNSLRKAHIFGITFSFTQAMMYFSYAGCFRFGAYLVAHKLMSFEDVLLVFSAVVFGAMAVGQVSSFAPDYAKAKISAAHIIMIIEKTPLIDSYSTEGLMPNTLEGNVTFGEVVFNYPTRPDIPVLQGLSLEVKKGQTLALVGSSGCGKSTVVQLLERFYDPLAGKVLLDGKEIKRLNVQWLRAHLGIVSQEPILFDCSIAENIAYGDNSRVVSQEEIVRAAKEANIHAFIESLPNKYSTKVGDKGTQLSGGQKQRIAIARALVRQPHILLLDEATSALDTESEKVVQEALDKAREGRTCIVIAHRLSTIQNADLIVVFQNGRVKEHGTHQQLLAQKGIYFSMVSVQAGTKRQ
Protocol: A MDR1 activity assay (MDR1-mediated Rhodamine 123 (R123) transport assay) was then performed to investigate the defective cholangiocyte differentiation of biliatresone-treated organoids.
Afterward, the liver organoids were washed with PBS and incubated in culture medium containing Rhodamine 123 (100 μM) at 37° C. for 30 minutes. After washing with PBS, the fluorescence of liver organoids was then visualized by laser confocal microscopy (Leica) immediately (as 0 minutes) and after 30 minutes incubation in culture medium.

SOX17 = SOX17 mRNA expression by real-time PCR normalized to GAPDH; assay type: cell-based, human; conditions: day-2 treated organoids vs control
Source text: Gene expressions in liver ductal organoids with or without biliatresone treatment for 2 day and 5 days were investigated. mRNA expression levels were characterized by real-time PCR for SOX17 normalized to GAPDH.

[5] = day-2 treated organoids vs control

C=C(C(=O)c1c(OC)cc2c(c1OC)OCO2)c1ccccc1O [biliatresone, Biliatresone]
extent of calcium influx (human cholangiocytes): significantly reduced
percentage of evoked cells after perfusion stimulation (human cholangiocytes): significantly reduced
percentage of ciliated cells (human liver organoids [1]; day 1 of treatment, Mean±SD, control 10.7±5%): 4.2±2%
percentage of ciliated cells (human liver organoids [1]; day 3 of treatment): 0%
GSH level (GSH; 6, 24 and 48 hours of treatment): restored
GSH level (GSH; 3 hours of treatment vs control): small but significant drop
organoid morphology (human liver organoids [2]; day 5, vs DMSO control): not well-expanded
organoid diameter (human liver organoids [2]; day 5, control organoids 25-100 μm): 5-20 μm
FITC-dextran (10 kDa) localization (human liver organoids [3]): localize in the lumen
percentage of Aβ positive cells (human liver organoids [4]; day-2 treated culture vs control culture (no Aβ positive cells in control), p<0.05): significantly higher
ZO-1 immuno-reactivity (human liver organoids [4]; [5]): markedly reduced
expression of cholangiocyte MDR1 (human liver organoids [4]; [5]): drastically reduced
percentage of HNF4A+ cells in organoids (human liver organoids [4]; day-2 treated organoids, 2 μg/ml, Mean±SD, n=3, control 14.9±2%): 57.3±8%
F-actin localization (human liver organoids [4]; day-2 treated organoids, control: apical side only): both the apical and the basal sides
expression of cholangiocyte marker CK19 (human liver organoids [4]; treated organoids vs control): drastically reduced
R123 transport across the organoid membrane (MDR1): very inefficient
SOX17 expression (SOX17): small but significant drop
